Data reported in patent US9546164B2 (GENENTECH, INC., priority 2013, dated 2017).
Counter-ions that a name gives are not always drawn.

Molecular target: hNav1.7 (Homo sapiens (Human), UniProt Q15858)
Test: Tritiated sulfonamide competitive binding to membranes from cells expressing hNav1.7 and the β1 subunit;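 note: Filter-bound radioactivity counted by liquid scintillation, nonspecific binding defined with excess unlabelled ligand, IC50 fitted to percent inhibition of specific binding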
Details: not given

hNav1.7, sequence (Q15858 other isoform, or with tags, fused parts or gaps): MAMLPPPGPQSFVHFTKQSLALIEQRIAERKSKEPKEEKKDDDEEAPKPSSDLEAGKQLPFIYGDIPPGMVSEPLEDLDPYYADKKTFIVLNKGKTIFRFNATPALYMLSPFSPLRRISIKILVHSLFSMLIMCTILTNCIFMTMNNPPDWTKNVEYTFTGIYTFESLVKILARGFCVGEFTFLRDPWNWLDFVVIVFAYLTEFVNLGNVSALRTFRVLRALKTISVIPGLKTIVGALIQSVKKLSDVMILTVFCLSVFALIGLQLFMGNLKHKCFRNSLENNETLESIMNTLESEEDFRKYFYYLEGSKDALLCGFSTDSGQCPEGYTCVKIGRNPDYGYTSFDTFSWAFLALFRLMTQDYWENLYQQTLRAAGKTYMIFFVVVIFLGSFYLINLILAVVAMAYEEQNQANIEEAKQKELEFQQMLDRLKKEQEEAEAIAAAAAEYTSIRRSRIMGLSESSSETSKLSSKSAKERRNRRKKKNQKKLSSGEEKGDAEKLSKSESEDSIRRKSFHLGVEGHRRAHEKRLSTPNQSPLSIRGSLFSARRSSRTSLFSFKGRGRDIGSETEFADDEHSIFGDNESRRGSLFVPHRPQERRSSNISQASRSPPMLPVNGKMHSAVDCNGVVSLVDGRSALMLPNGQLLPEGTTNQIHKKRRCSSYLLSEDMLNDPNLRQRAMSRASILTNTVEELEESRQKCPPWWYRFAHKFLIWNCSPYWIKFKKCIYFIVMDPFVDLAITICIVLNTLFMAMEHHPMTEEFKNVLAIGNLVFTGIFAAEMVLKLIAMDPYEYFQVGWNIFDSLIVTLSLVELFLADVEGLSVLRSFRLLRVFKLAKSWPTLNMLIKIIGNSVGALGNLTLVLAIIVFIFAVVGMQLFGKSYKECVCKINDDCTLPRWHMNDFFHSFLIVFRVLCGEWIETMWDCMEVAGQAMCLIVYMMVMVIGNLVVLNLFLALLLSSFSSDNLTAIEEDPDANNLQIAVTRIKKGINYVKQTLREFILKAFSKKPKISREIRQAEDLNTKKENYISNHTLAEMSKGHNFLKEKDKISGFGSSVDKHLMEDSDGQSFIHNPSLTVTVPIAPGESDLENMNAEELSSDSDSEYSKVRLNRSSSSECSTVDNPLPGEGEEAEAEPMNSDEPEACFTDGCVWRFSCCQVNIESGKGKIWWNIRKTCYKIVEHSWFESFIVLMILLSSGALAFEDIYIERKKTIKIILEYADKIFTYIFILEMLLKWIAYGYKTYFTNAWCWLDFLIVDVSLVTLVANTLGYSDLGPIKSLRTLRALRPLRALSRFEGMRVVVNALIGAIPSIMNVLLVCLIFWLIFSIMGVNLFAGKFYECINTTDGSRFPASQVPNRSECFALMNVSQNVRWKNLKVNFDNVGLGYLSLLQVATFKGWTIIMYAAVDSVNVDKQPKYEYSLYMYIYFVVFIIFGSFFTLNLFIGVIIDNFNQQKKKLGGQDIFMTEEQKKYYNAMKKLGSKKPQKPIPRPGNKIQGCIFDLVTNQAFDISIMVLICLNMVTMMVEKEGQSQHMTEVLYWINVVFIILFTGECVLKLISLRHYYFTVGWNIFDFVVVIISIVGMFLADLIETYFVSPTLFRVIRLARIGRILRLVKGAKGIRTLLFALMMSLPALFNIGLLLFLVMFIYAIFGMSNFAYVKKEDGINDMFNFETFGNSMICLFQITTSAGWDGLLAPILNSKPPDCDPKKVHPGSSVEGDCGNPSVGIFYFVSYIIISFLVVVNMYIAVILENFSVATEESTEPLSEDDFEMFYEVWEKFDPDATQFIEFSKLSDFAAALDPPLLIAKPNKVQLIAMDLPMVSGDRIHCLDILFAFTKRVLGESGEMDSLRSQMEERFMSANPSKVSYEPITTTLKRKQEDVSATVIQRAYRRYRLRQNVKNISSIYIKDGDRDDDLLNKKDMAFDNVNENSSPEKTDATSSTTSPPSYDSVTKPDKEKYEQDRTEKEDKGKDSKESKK
hNav1.7, sequence (Q07699 19-218 partner): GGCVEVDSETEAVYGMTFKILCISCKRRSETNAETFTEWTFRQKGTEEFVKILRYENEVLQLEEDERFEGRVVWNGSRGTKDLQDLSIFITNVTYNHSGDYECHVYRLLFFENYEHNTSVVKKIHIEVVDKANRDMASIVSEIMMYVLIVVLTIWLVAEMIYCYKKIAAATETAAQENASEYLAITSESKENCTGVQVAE

O=C(NS(=O)(=O)C1CC1)c1cc(C2CC2)c(O[C@@H]2CCCN(Cc3ccc(F)cc3)C2)cc1F [Example 21, (R)-5-cyclopropyl-N-(cyclopropylsulfonyl)-2-fluoro-4-((1-(4-fluorobenzyl)piperidin-3-yl)oxy)benzamide] was tested. Which IC50 did it give?
Its IC50 is 11.2 nM.

Which IC50 does the source give for C[C@H]1CN(Cc2cc(F)c(C(=O)NS(=O)(=O)C3CC3)cc2C2CC2)CCN1[C@@H](C)c1cc(Cl)cc(Cl)c1 [Example 568, 5-cyclopropyl-N-(cyclopropylsulfonyl)-4-(((S)-4-((S)-1-(3,5-dichlorophenyl)ethyl)-3-methylpiperazin-1-yl)methyl)-2-fluorobenzamide] here?
Its IC50 is 9.5 nM.

How did the IC50 turn out when O=C(NS(=O)(=O)C1CC1)c1cc(C2CC2)c(O[C@@H]2CCCN(Cc3ccc(F)cc3C(F)(F)F)C2)cc1F [Example 35] was run?
The IC50 was 2.4 nM.

With CS(=O)(=O)NC(=O)c1cc(C2CC2)c(CN2CCC(Oc3cc(Cl)cc(OC(F)(F)F)c3)CC2)cc1F [Example 548, 4-((4-(3-chloro-5-(trifluoromethoxy)phenoxy)piperidin-1-yl)methyl)-5-cyclopropyl-2-fluoro-N-(methylsulfonyl)benzamide, trifluoroacetic acid salt] as the compound, how does the IC50 read?
Its IC50 is 3.7 nM.

Same assay, conditions: read-out: Ligand Binding Assay; 100 pM [3H]compound, membranes with hNav1.7 and β1 subunit, 18 h, room temperature

For C[C@H](c1cc(Cl)cc(Cl)c1)N1CC(C)(COc2cc(F)c(C(=O)NS(C)(=O)=O)cc2C2CC2)C1 (single isomer, unassigned) [Example 185], which IC50 is on record?
Its IC50 is 7 nM.

Which IC50 does the source give for CS(=O)(=O)NC(=O)c1cc(C2CC2)c(OCC2CN(Cc3ccc(C(F)(F)F)c(F)c3)C2)cc1F [Example 76, 5-cyclopropyl-2-fluoro-4-((1-(3-fluoro-4-(trifluoromethyl)benzyl)azetidin-3-yl)methoxy)-N-(methylsulfonyl)benzamide] here?
Its IC50 is 42 nM.

For CS(=O)(=O)NC(=O)c1cc(C2CC2)c(OCC2CN(Cc3cc(Cl)cc(Cl)c3)C2)cc1F [Example 132, 5-Cyclopropyl-4-((1-(3,5-dichlorobenzyl)azetidin-3-yl)methoxy)-2-fluoro-N-(methylsulfonyl)benzamide], which IC50 is on record?
Its IC50 is 14 nM.

Which IC50 does the source give for CS(=O)(=O)NC(=O)c1cc(C2CC2)c(OCC2CN(C(c3ccccc3)c3cccc(F)c3)C2)cc1F (stereo not drawn) [Example 154, 5-Cyclopropyl-2-fluoro-4-((1-((3-fluorophenyl)(phenyl)methyl)azetidin-3-yl)methoxy)-N-(methylsulfonyl)benzamide] here?
Its IC50 is 9.12 nM.

How did the IC50 turn out when CS(=O)(=O)NC(=O)c1cc(C2CC2)c(OC[C@@H]2CCCN(Cc3ccc(F)cc3Cl)C2)cc1F [Example 332, (R)-4-((1-(2-chloro-4-fluorobenzyl)piperidin-3-yl)methoxy)-5-cyclopropyl-2-fluoro-N-(methylsulfonyl)benzamide] was run?
Its IC50 is 35.2 nM.

How did the IC50 turn out when C[C@@H](c1ccc(Cl)c(Cl)c1)N1CCC(C)(COc2cc(F)c(C(=O)NS(C)(=O)=O)cc2C2CC2)CC1 (single isomer, unassigned) [Example 219] was run?
Its IC50 is 8.3 nM.

With CC(c1ccc(OC(F)(F)F)cc1)N1CCC(COc2cc(F)c(C(=O)NS(C)(=O)=O)cc2C2CC2)CC1 (stereo not drawn) [Example 156] as the compound, how does the IC50 read?
Its IC50 is 21 nM.

For C[C@H](c1cc(Cl)cc(C(F)(F)F)c1)N1CCC(C)(COc2cc(F)c(C(=O)NS(C)(=O)=O)cc2C2CC2)CC1 (single isomer, unassigned) [Example 278], which IC50 is on record?
The IC50 was 3.3 nM.

With C[C@H](c1ccc(Cl)c(Cl)c1)N1CCC(C)(COc2cc(F)c(C(=O)NS(C)(=O)=O)cc2C2CC2)CC1 (single isomer, unassigned) [Example 218] as the compound, how does the IC50 read?
The IC50 was 7.8 nM.

Which IC50 does the source give for O=C(NS(=O)(=O)C1CC1)c1cc(C2CC2)c(CN2CCO[C@H](Cc3ccc(Cl)c(Cl)c3)C2)cc1F [Example 460, (R)-5-cyclopropyl-N-(cyclopropylsulfonyl)-4-((2-(3,4-dichlorobenzyl)morpholino)methyl)-2-fluorobenzamide] here?
The IC50 was 5 nM.

C[C@H](c1ccccc1)N1CC(COc2cc(F)c(C(=O)NS(C)(=O)=O)cc2C2CC2)C1 [Example 85, (R)-5-Cyclopropyl-2-fluoro-N-(methylsulfonyl)-4-((1-(1-phenylethyl)azetidin-3-yl)methoxy)benzamide] was tested. Which IC50 did it give?
Its IC50 is 1860 nM.

Which IC50 does the source give for CS(=O)(=O)NC(=O)c1cc(C2CC2)c(OCC2CCN(Cc3ccccc3F)CC2)cc1F [Example 127, 5-Cyclopropyl-2-fluoro-4-((1-(2-fluorobenzyl)piperidin-4-yl)methoxy)-N-(methylsulfonyl)benzamide] here?
Its IC50 is 578 nM.

How did the IC50 turn out when CS(=O)(=O)NC(=O)c1cc(C2CC2)c(OCC2CCN(Cc3ccccc3Cl)CC2)cc1F [Example 191, 4-((1-(2-Chlorobenzyl)piperidin-4-yl)methoxy)-5-cyclopropyl-2-fluoro-N-(methylsulfonyl)benzamide] was run?
Its IC50 is 32 nM.

Which IC50 does the source give for CS(=O)(=O)NC(=O)c1cc(C2CC2)c(O[C@@H]2CCCN(Cc3ccc(C(F)(F)F)c(Cl)c3)C2)cc1F [Example 433, (R)-4-((1-(3-chloro-4-(trifluoromethyl)benzyl)piperidin-3-yl)oxy)-5-cyclopropyl-2-fluoro-N-(methylsulfonyl)benzamide, trifluoroacetic acid salt] here?
Its IC50 is 6.2 nM.

Which IC50 does the source give for COC[C@H](c1cc(Cl)cc(Cl)c1)N1CCC(COc2cc(F)c(C(=O)NS(C)(=O)=O)cc2C2CC2)CC1 (single isomer, unassigned) [Example 163] here?
The IC50 was 3.6 nM.

O=C(NS(=O)(=O)C1CC1)c1cc(Cl)c(OCC2CCN(Cc3cc(Cl)cc(OC(F)(F)F)c3)CC2)cc1F [Example 407, 5-chloro-4-((1-(3-chloro-5-(trifluoromethoxy)benzyl)piperidin-4-yl)methoxy)-N-(cyclopropylsulfonyl)-2-fluorobenzamide, trifluoroacetic acid salt] was tested. Which IC50 did it give?
Its IC50 is 6.7 nM.

With CS(=O)(=O)NC(=O)c1cc(C2CC2)c(OCC2CCN(C(c3ccccc3)c3cc(Cl)cc(Cl)c3)CC2)cc1F (stereo not drawn) [Example 412, 5-cyclopropyl-4-((1-((3,5-dichlorophenyl)(phenyl)methyl)piperidin-4-yl)methoxy)-2-fluoro-N-(methylsulfonyl)benzamide, trifluoroacetic acid salt] as the compound, how does the IC50 read?
Its IC50 is 1.5 nM.

With CS(=O)(=O)NC(=O)c1cc(C2CC2)c(OCC2CCN(c3ccccc3)CC2)cc1F [Example 79, 5-cyclopropyl-2-fluoro-N-(methylsulfonyl)-4-((1-phenylpiperidin-4-yl)methoxy)benzamide] as the compound, how does the IC50 read?
The IC50 was 9.9 nM.

With C[C@H](c1cc(Cl)cc(Cl)c1)N1CCC(COc2cc(F)c(C(=O)NS(C)(=O)=O)cc2C2CC2)CC1 [Example 99, (R)-5-Cyclopropyl-4-((1-(1-(3,5-dichlorophenyl)ethyl)piperidin-4-yl)methoxy)-2-fluoro-N-(methylsulfonyl)-benzamide] as the compound, how does the IC50 read?
Its IC50 is 3.89 nM.

How did the IC50 turn out when CC1(COc2cc(F)c(C(=O)NS(C)(=O)=O)cc2C2CC2)CCN(Cc2cc(Cl)cc(C(F)(F)F)c2)CC1 [Example 140, 4-((1-(3-chloro-5-(trifluoromethyl)benzyl)-4-methylpiperidin-4-yl)methoxy)-5-cyclopropyl-2-fluoro-N-(methylsulfonyl)benzamide] was run?
Its IC50 is 3.5 nM.

With COC[C@@H](c1cc(Cl)cc(Cl)c1)N1CCC(C)(COc2cc(F)c(C(=O)NS(C)(=O)=O)cc2C2CC2)CC1 (single isomer, unassigned) [Example 172] as the compound, how does the IC50 read?
Its IC50 is 3.9 nM.

Which IC50 does the source give for C[C@@H](c1cc(Cl)cc(Cl)c1)N1CCC(C#N)(COc2cc(F)c(C(=O)NS(C)(=O)=O)cc2C2CC2)CC1 [Example 598] here?
The IC50 was 258 nM.

Same assay, conditions: read-out: Ligand Binding Assay; 100 pM [3H]compound, membranes with hNav1.7 and β1 subunit, 18 h, room temperature; trifluoroacetic acid salt

For O=C(NS(=O)(=O)C1CC1)c1cc(C2CC2)c(CN2CCC(Oc3ccc(F)cc3Cl)CC2)cc1F [Example 506, trifluoroacetic acid salt], which IC50 is on record?
The IC50 was 14.3 nM.
